Results reported in US8252588B2, “Stem cells having increased sensitivity to SDF-1 and methods of generating and using same” (Yeda Research and Development Co. Ltd., priority 2003, dated 2012).

Tests used:
[1] = tested on: human CD34+ cells; test: Four hour homing of human CD34+ cells to the CCl4-injured liver of NOD/SCID mice; type: in vivo; conditions: non-irradiated NOD/SCID mice, 15 μl CCl4 24 hours prior, four hour assay
Procedure: (§1) Liver injury—Mice were injected intraperitoneally (IP) with 10, 15 or 30 μl/mouse of CCl4 and liver samples were collected within a few hours, or 1-2 days following injection, as indicated. In homing assays, mice were intraveneously (IV) transplanted with human MPB CD34^+ cells (0.6×10^6 cells/mouse) 4 hours prior to liver collection. Homing was blocked by preincubation of transplanted cells with 10 μg of anti CXCR4/mouse or by IP injection of 100 μg/mouse of a specific MMP2/9 inhibitor III (CalBiochem, catalogue #444251). Human progenitors in the blood circulation of engrafted mice transplanted a month before with human CB MNC (20×10^6 cells/mouse) were quantified by seeding 2×10^5 mononuclear cells/ml in colony forming unit assay as described [Kollet (2001) Blood 97:3283-3291]. CXCR4 expression was determined by flow cytometry.

[2] = tested on: human colony forming progenitors; test: Human progenitors in blood circulation of engrafted mice, colony forming unit assay; type: in vivo; conditions: engrafted NOD/SCID mice, one day after single injection of 10 μl CCl4
Procedure: Data summarize three independent experiments.
as §1

[3] = tested on: CXCR4; test: Human CXCR4 staining of peripheral blood MNC of chimeric mice, flow cytometry; type: in vivo; conditions: CCl4 treated chimeric mice
Procedure: as §1

[4] = tested on: MMP-2/9; test: Zymography assay of MMP-2/9 activity in liver of CCl4 injected mice; type: in vivo; conditions: CCl4 treated NOD/SCID mice
[5] = tested on: human CD34+ cells; test: Four hour homing of CD34+ cells to the liver of non-irradiated mice, local hepatic injection of human SDF-1; type: in vivo; conditions: non-irradiated NOD/SCID, human SDF-1 injected into hepatic parenchyma, IV infusion of cells
Procedure: FIG. 1a is a histogram showing inhibition of homing of human CB or MPB enriched CD34^+ cells to the murine BM, spleen and liver by neutralizing CXCR4 antibodies. Data presents inhibition as percentage of control. P≦0.008, comparing anti CXCR4 treated samples to control counterparts. […] Human SDF-1 was injected to the liver parenchyma as indicated. Cells were collected from the injected lobe to determine the homing of human CD34^+ cells.
Mice—NOD/SCID mice were bred and housed as previously described [Kollet (2001) Blood 97:3283-3291]. All experiments were approved by the animal care committee of the Weizmann Institute. Mice were sublethally irradiated (i.e., 375 cGy) as indicated, 24 hours prior to transplantation. Non-irradiated mice were used when local hepatic injection of SDF-1 was effected.
CXCR4 neutralization—Human CD34^+ cells were pre-incubated with anti human CXCR4 neutralizing mAb (10 μg/0.5×10^6 cells, 12G5, R&D) and were injected (0.5-0.6×10^6 CD34^+ cells per mouse) into the tail vein without washing. Mice were killed 4 hours, 16 hours, or 5-6 weeks following cell transplantation as indicated. Single cell suspensions of liver tissues were washed thoroughly with PBS. Homing of human cells was determined as described [Kollet (2001) Blood 97:3283-3291], acquiring 1.5×10^6 cells/sample.

[6] = tested on: CXCR4; test: Surface CXCR4 expression on CD34+ cells by FACS; type: cell-based, human; conditions: CB CD34+ cells, 5 hours incubation
Procedure: CB CD34^+ cells were incubated for 5 hours with RPMI growth medium and HT1080 conditioned medium. Cells were stained with isotype control antibody as a negative control (Isot), or with CXCR4 antibody. Representative data of 3 experiments is shown.
Human cells—Cord blood (CB) cells and adult mobilized peripheral blood (MPB) cells were obtained after informed consent in accordance with procedures approved by the human ethics committee of the Weizmann Institute. CD34^+ cell enrichment was effected using magnetic bead separation as previously described [Kollet (2001) Blood 97:3283-3291]. CXCR4 expression was determined by flow cytometry using purified anti human CXCR4 (clone 12G5, R&D, Minneapolis, Minn.) and secondary F(ab′)2 fragment of goat anti mouse IgG FITC (Jackson, West Grove, Pa.).

With ClC(Cl)(Cl)Cl [CCl4, Carbon tetrachloride] the “homing of human CD34+ cells to the injured liver” value [1] was “rapidly induced homing”, the “recruitment of human colony forming progenitors from bone marrow to the circulation” value [2] was “induced the recruitment” and the “CXCR4 expression on human MNC cells in the circulation” value [3] was “increased level of CXCR4 expression”. The “MMP-9 expression in the liver” value [4] was “emergence of MMP-9 expression” and the “activity of MMP-2 in the liver” value [4] was “increased activity”.

With “SDF-1: chemokine stromal derived factor, ligand of CXCR4” the “homing of CD34+ progenitors to the liver” value [5] was “increased the homing”.

B1: purified MMP-2: purified recombinant MMP-2 (protein, UniProt P08253 110-660, looked up)
72 kDa type IV collagenase: YNFFPRKPKWDKNQITYRIIGYTPDLDPETVDDAFARAFQVWSDVTPLRFSRIHDGEADIMINFGRWEHGDGYPFDGKDGLLAHAFAPGTGVGGDSHFDDDELWTLGEGQVVRVKYGNADGEYCKFPFLFNGKEYNSCTDTGRSDGFLWCSTTYNFEKDGKYGFCPHEALFTMGGNAEGQPCKFPFRFQGTSYDSCTTEGRTDGYRWCGTTEDYDRDKKYGFCPETAMSTVGGNSEGAPCVFPFTFLGNKYESCTSAGRSDGKMWCATTANYDDDRKWGFCPDQGYSLFLVAAHEFGHAMGLEHSQDPGALMAPIYTYTKNFRLSQDDIKGIQELYGASPDIDLGTGPTPTLGPVTPEICKQDIVFDGIAQIRGEIFFFKDRFIWRTVTPRDKPMGPLLVATFWPELPEKIDAVYEAPQEEKAVFFAGNEYWIYSASTLERGYPKPLTSLGLPPDVQRVDAAFNWSKNKKTYIFAGDKFWRYNEVKKKMDPGFPKLIADAWNAIPDNLDAVVDLQGGGHSYFFKGAYYLKLENQSLKSVKFGSIKSDWLGC
For B1, the “surface CXCR4 expression on enriched human CD34+ cells” value [6] was “upregulation of CXCR4”.
